Assay results: paper PMC8669712, “G Protein-Coupled Receptor GPR35 Suppresses Lipid Accumulation in Hepatocytes” (ACS Pharmacology & Translational Science, 2021)
Values joined by “and” are separate entries in the source; they are usually repeats but may differ in a detail not shown here. Equal values may be shown once.

How the values were obtained:
[1] = system: GPR35 genome-edited HepG2 clones; experiment: Label-free cellular impedance assay in GPR35 genome-edited HepG2 clones 19 and 27; type: cell-based, human; conditions: 1 × 10^–5 M
Text: Expression of full-length mRNA from the GPR35 gene was eliminated using a dual synthetic gRNA/RNP approach[43] with one guide cutting the intron and one in the exon region to generate a nonfunctional GPR35 protein. The gRNAs were designed with the CRISPR Finder (Welcome Sanger Institute). HepG2 cells were transfected with the Neon Transfection System from Thermo Fisher Scientific (Waltham, MA), according to the manufacturer’s instructions. Briefly, CrRNA and tracrRNA were annealed to gRNA at 95 °C for 5 min. Next, cells were transfected with gRNA, Cas9, and the electroporation enhancer, according to the manufacturer’s instructions. All crRNAs, tracrRNA, SpCas9 nuclease, and the electroporation enhancer were purchased from Integrated DNA Technologies (Coralville, IA). Transfected cells were plated and analyzed for editing efficiency 24–48 h after electroporation. Single-cell clones were generated by single-cell FACS sorting. Clones were expanded and to access editing efficiency, genomic DNA from cell clones was extracted and subjected to PCR to confirm the genome deletion. To further quantify and capture the genomic DNA deletion, PCR primers listed in Table S1 were designed to amplify the genomic DNA surrounding the target site. The PCR primers were linked to the sequences of the Illumina Nextera adapters. The amplified PCR products were subjected to paired-end sequencing using NextSeq500 from Illumina using paired-end chemistry with a 150-bp read length. In addition, mRNA from KO clones was isolated and subjected to RT-PCR. To further confirm the abrogation of GPR35 activation in CRISPR KO clones, KO cells were seeded onto xCELLigence E plates (2 × 10^4 cells/well) for 24 h at 37 °C prior to the treatment of GPR35 agonists. The impedance was recorded using xCELLigence RTCA. […]
HepG2 cells were seeded onto xCELLigence E plates (2 × 10^4 cells/well) and incubated for 24 h at 37 °C. […] After the addition of GPR35 agonist or vehicle control, the impedance (represented as “cell index”) was recorded every 30 s over a 2 h period using xCELLigence RTCA (Agilent). […]

[2] = system: high-fat diet-induced wild-type mice; set-up: method as in PMID 31189299; conditions: oral, 1 mg/kg, final 7 days of a 7-week-diet exposure; cited from earlier work
HepG2 cells = experiment: Label-free cellular impedance assay (xCELLigence) in HepG2 cells; type: cell-based, human
Experimental: HepG2 cells were seeded onto xCELLigence E plates (2 × 10^4 cells/well) and incubated for 24 h at 37 °C. To evaluate GPR35 activation and its downstream G protein signaling, HepG2 cells or primary mouse hepatocytes were exposed to GPR35 antagonists or G protein inhibitors 1 h (overnight for Pertussis toxin) prior to GPR35 agonist stimulation. After the addition of GPR35 agonist or vehicle control, the impedance (represented as “cell index”) was recorded every 30 s over a 2 h period using xCELLigence RTCA (Agilent). Each experiment was repeated at least three times.

human GPR35a = human GPR35a (Homo sapiens, UniProt Q9HC97); experiment: β-arrestin-based interaction assay, agonist potency at human GPR35a; type: cell-based
human GPR35a, sequence (Q9HC97 whole entry): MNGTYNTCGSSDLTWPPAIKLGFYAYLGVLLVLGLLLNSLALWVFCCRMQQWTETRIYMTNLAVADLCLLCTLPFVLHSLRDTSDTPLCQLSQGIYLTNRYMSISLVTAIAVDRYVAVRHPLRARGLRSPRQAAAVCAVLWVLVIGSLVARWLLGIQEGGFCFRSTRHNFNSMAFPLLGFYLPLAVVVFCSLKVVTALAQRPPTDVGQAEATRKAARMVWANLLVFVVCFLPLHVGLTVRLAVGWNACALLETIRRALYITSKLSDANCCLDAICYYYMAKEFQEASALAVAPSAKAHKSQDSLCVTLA

mouse GPR35 = mouse GPR35 (Mus musculus, UniProt Q9ES90); experiment: β-arrestin-based interaction assay, agonist potency at mouse GPR35; type: cell-based
mouse GPR35, sequence (Q9ES90 whole entry): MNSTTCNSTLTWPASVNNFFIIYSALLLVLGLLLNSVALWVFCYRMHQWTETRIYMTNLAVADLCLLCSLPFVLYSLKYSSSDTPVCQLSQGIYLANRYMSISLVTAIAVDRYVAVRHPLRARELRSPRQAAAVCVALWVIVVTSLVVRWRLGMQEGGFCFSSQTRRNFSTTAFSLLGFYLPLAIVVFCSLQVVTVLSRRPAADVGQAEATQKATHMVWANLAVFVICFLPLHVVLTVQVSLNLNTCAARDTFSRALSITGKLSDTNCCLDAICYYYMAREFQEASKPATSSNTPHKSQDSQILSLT

[3] = system: GPR35 knock-out clones of HepG2 cells; experiment: Oil Red O lipid accumulation in GPR35 knock-out clones of HepG2 cells; type: cell-based, human; conditions: lodoxamide 1 × 10^–6 M or 1 × 10^–5 M
Experimental: Human hepatocellular carcinoma HepG2 cells were grown in Minimum Essential Medium (MEM) supplemented with 10% fetal bovine serum (FBS), 2 mM L-glutamine, 1× non-essential amino acid, 1 mM sodium pyruvate, and 1× penicillin/streptomycin. Materials for cell culture were all from Sigma-Aldrich (St. Louis, MO) or Thermo Fisher Scientific (Waltham, MA). Cells were incubated in a humidified CO2 incubator at 37 °C. Experiments were performed when cell confluence reached 80%. Cells were seeded onto a 12-well plate (1 × 10^5 cells/well) for 24 h prior to drug treatment. […] Expression of full-length mRNA from the GPR35 gene was eliminated using a dual synthetic gRNA/RNP approach[43] with one guide cutting the intron and one in the exon region to generate a nonfunctional GPR35 protein. The gRNAs were designed with the CRISPR Finder (Welcome Sanger Institute). […] Transfected cells were plated and analyzed for editing efficiency 24-48 h after electroporation. […] To further quantify and capture the genomic DNA deletion, PCR primers listed in Table S1 were designed to amplify the genomic DNA surrounding the target site. […] The amplified PCR products were subjected to paired-end sequencing using NextSeq500 from Illumina using paired-end chemistry with a 150-bp read length. […] The impedance was recorded using xCELLigence RTCA. […] Lipid accumulation was measured by Oil Red O staining.

[4] = system: GPR35a-reconstituted clone 27 HepG2 cells; experiment: Oil Red O lipid accumulation in GPR35a-reconstituted clone 27 cells; type: cell-based, human; conditions: clone 27, 72 h
Experimental: Briefly, CRISPR KO cells were transiently transfected 24 h with the human GPR35a expression vector using LipofectAMINE 3000 reagent, according to the manufacturer’s instructions. […] Alternatively, after 24 h transfection, cells were seeded onto a 12-well plate (1 × 10^5 cells/well) for 24 h at 37 °C. Then, cells were incubated with T0901317 and/or GPR35 agonists (in MEM containing 5% FBS) for 72 h. After the drug treatment, cells were stained with Oil Red O to examine the levels of lipid accumulation. Each experiment was repeated at least three times.
Lipid accumulation was measured by Oil Red O staining. A working solution of Oil Red O was prepared, as described with modification.[46] After drug treatment, cells were washed with PBS and fixed with formalin solution for 1 h at 4 °C. Then, cells were stained with Oil Red O working solution for 10 min at room temperature. After PBS washing, Oil Red O was extracted from cells using 150 μl of isopropanol and OD510 nm measured. […] These cells were then stained with Hoechst 33342 (1 μg/mL) and the fluorescence intensity of Hoechst (represents the DNA content in cells) was measured using a CLARIOstar plate reader (BMG LABTECH). Oil Red O accumulation was corrected for differences in DNA content and expressed as relative absorbency, taking the control condition (treated with vehicle only) as 1.

ratio (log) (H/M) (human GPR35a; log ratio of potency at human GPR35a over mouse GPR35): 2.66 ± 0.05 | EC50 (human GPR35a; β-arrestin-based interaction assay, read-out: human GPR35a, pEC50 (converted)): 4.17 nM | fold lower potency at mouse GPR35 than at human GPR35 (mouse GPR35; mouse versus human GPR35): ~450 fold and ~500 fold | EC50 (mouse GPR35; β-arrestin-based interaction assay, read-out: mouse GPR35, pEC50 (converted)): 1910 nM
Structure (SMILES): N#Cc1cc(NC(=O)C(=O)O)c(Cl)c(NC(=O)C(=O)O)c1 [lodoxamide, 2-[2-chloro-5-cyano-3-(oxaloamino)anilino]-2-oxoacetic acid]
impedance signal in GPR35 genome-edited clones 19 and 27 [1]: not in either clone 19 or 27 | effect of treatment in high-fat diet-induced wild-type mice [2]: beneficial effects | impedance signal in parental HepG2 cells (HepG2 cells; 1 × 10^–5 M): produced positive signals | time for the impedance signal to reach a plateau (HepG2 cells; HepG2 cells, lodoxamide 1 × 10^–8 M): ≤ 5 min | suppression of the effect of T0901317 on lipid accumulation in GPR35 knock-out clones [3]: unable to suppress the effect of T0901317 | lipid accumulation induced by T0901317 in GPR35a-reconstituted cells [4]: again able to prevent the lipid accumulation
